# Laboratory results published in patent US9956157B2, “Composition containing fucosterol for skin whitening or moisturizing” (INDUSTRY-ACADEMIC COOPERATION FOUNDATION, YONSEI UNIVERSITY, priority 2014, dated 2018).
# Assays:
# Assay type in all cases: cell-based
# [1] = test system: TRP-2 (tyrosinase-related protein 2); assay: TRP-2 protein expression (western blot) in B16F10 melanoma cells; conditions: 200 nM α-MSH, fucosterol 5 and 20 μM, 24 hrs, FIG. 6
# Experimental: B16F10 melanoma cells were incubated in a DMEM medium including 10% fetal bovine serum and then added in a 6-well plate with 2.5×10^5 cell/mL (the final volume of 3 mL). After being incubated for 24 hrs, the medium was removed and fucosterol which was dissolved in the DMEM medium including 200 nM α-MSH was treated at 5 and 20 μM of concentrations, respectively. The cells after 24 hrs were lysed with a NP40 buffer solution including proteinase inhibitor cocktail and the protein amount extracted from the cells was quantified by using a Bradford reagent. The quantified protein was boiled for 5 min and isolated by electrophoresis with 10% SDS-PAGE to transfer the isolated proteins to a nitrocellular membrane. A primary antibody of […] and […] was diluted in 2.5% bovine serum albumin at a ratio of 1:1000 and reacted with the protein transferred to the nitrocellular membrane for 20 hrs at room temperature. The primary antibody was reacted and then the nitrocellular membrane was washed three times by using the TBST for 10 min. […] As the measured result, the protein expression of […] and […] was verified and it was shown that the loading amount of the protein was constant by α-tubulin.
# tyrosinase = assay: Tyrosinase protein expression (western blot) in B16F10 melanoma cells; conditions: 200 nM α-MSH, fucosterol 5 and 20 μM, 24 hrs, FIG. 5
# Experimental: B16F10 melanoma cells were incubated in a DMEM medium including 10% fetal bovine serum and then added in a 6-well plate with 2.5×10^5 cell/mL (the final volume of 3 mL). After being incubated for 24 hrs, the medium was removed and fucosterol which was dissolved in the DMEM medium including 200 nM α-MSH was treated at 5 and 20 μM of concentrations, respectively. The cells after 24 hrs were lysed with a NP40 buffer solution including proteinase inhibitor cocktail and the protein amount extracted from the cells was quantified by using a Bio-Rad protein assay dye (Bradford) reagent. The quantified protein was boiled for 5 min and isolated by electrophoresis with 10% SDS-PAGE to transfer the isolated proteins to a nitrocellular membrane. A primary antibody of tyrosinase was diluted in 2.5% bovine serum albumin at a ratio of 1:1000 and reacted with the protein transferred to the nitrocellular membrane for 20 hrs at room temperature. The primary antibody was reacted and the nitrocellular membrane was washed by using tris-buffer saline tween 20 (TBST) three times for 10 min. […] As the measured result, the protein expression of tyrosinase was verified and the loading amount of the protein was constant by α-tubulin.
# [2] = test system: HaCaT human keratinocytes; assay: Cornified envelope formation in HaCaT human keratinocytes (absorbance 340 nm); conditions: HaCaT cells, fucosterol 5, 10, 20 μM, 96 hrs, p<0.05, FIG. 8
# Experimental: HaCaT human keratinocytes were incubated in a Dulbecco's Modified Eagle's Media (DMEM) medium including 10% fetal bovine serum and then put in a 6-well plate with 2×10^5 cell/ml (the final volume of 3 ml). After being incubated for 24 hrs, the medium was removed and fucosterol which was dissolved in the DMEM medium was treated at 5, 10, and 20 μM concentrations, respectively. After incubation for 96 hrs, the incubated medium was removed from the 6-well plate to collect a cell pellet, and the cell pellet was transferred to a 1.5 mL tube and centrifuged for 10 min at 10,000 rpm to remove a supernatant. The obtained pellet was added with a Tris buffer solution including 2% sodium dodecyl sulfate (SDS) and 20 mM dithiothreitol (DTT) and boiled, and the absorbance was measured at 340 nm to evaluate the effect on cornified envelope formation. According to Equation 1 below, the formation degree of the cornified envelope compared with the control group was calculated and the result was illustrated in FIG. 8. Cornified envelope formation amount (%) compared with control group=absorbance of each test material/absorbance of control group×100 […]
# loricrin = assay: Loricrin protein expression (western blot) in HaCaT human keratinocytes; conditions: HaCaT cells, fucosterol 5, 10, 20 μM, 24 hrs, FIG. 10
# Experimental: HaCaT human keratinocytes were incubated in a Dulbecco's Modified Eagle's Media (DMEM) medium including 10% fetal bovine serum and then put in a 6-well plate with 2×10^5 cell/ml (the final volume of 3 ml). After being incubated for 24 hrs, the medium was removed and fucosterol which was dissolved in the DMEM medium was treated at 5, 10, and 20 μM concentrations, respectively. After 24 hrs, the HaCaT human keratinocytes were lysed with a NP40 buffer solution including proteinase inhibitor cocktail. The protein amount extracted from the HaCaT human keratinocytes was quantified by using a Bradford method. The sample was boiled for 5 min and then the same amount of protein ([…]) was isolated by electrophoresis with 10% SDS-PAGE. The isolated proteins after electrophoresis were transferred to a nitrocellular membrane and western blot was performed. A primary antibody was reacted and the nitrocellular membrane was washed three times by using Tris-buffer saline tween20 (TBST) for 10 min. In this case, the kind and the dilution of the primary antibody used in the present invention is 1:1000. In a secondary antibody reaction, a secondary antibody was put in the membrane performing the primary antibody reaction and reacted for 2 hrs at room temperature. In this case, a dilution of the secondary antibody was 1:5000. […]
# filaggrin = assay: Filaggrin mRNA expression (RT-PCR) in HaCaT human keratinocytes; conditions: HaCaT cells, fucosterol 5, 10, 20 μM, 24 hrs, FIG. 11
# Experimental: HaCaT human keratinocytes were incubated in a Dulbecco's Modified Eagle's Media (DMEM) medium including 10% fetal bovine serum and then put in a 6-well plate with 2×10^5 cell/ml (the final volume of 3 ml). After being incubated for 24 hrs, the medium was removed and fucosterol which was dissolved in the DMEM medium was treated at 5, 10, and 20 μM concentrations, respectively. After 24 hrs, the total RNA was collected by using a TRIzol reagent (Invitrogen, Carlsbad, Calif., USA) and reverse-transcribed and then a reverse transcription-polymerase chain reaction (RT-PCR) analysis was performed below. First, for cDNA synthesis, the RNA was reverse-transcribed by reverse transcriptase. The RT-PCR was performed by specific primers below and the result was illustrated in FIG. 11.
smiles,measurement,setting,value
C/C=C(\CC[C@@H](C)[C@H]1CC[C@H]2[C@@H]3CC=C4C[C@@H](O)CC[C@]4(C)[C@H]3CC[C@]12C)C(C)C [fucosterol],protein expression of TRP-2,[1],reduced
same,protein expression of tyrosinase,tyrosinase,reduced
same,cornified envelope formation,[2],excellent cornified envelope formation effect
same,protein expression of loricrin,loricrin,increased
same,mRNA expression of filaggrin,filaggrin,increased
